Entries after “also recorded” stand apart in the source; their conditions may differ.

The nature of data set [1]: Short-term thermal stability by thermogravimetric analysis (TGA). It is filed as physicochemical. Here is the method: (§1) The short-term thermal stability of the unsaturated surfactant was assessed using thermogravimetric analysis (TGA). The thermal stability for a longer period (2 weeks) was determined by FTIR and NMR. The synthesized unsaturated surfactant was dried and heated at 10° C./min in an SDT-Q600 instrument (TA Instruments) from room temperature to 600° C. under nitrogen atmosphere. The thermal stability for a longer period was determined by aging 1 wt % aqueous solution of the unsaturated surfactant at 90° C. for 15 days. FTIR, ^13C NMR, and ^1H NMR were used to identify the structural changes in the unsaturated surfactant after aging. A Nicolet 6700 spectrometer was used for FTIR analysis of the unsaturated surfactant, while a JEOL 500 MHz spectrometer was used for obtaining the NMR spectra.
Solubility and compatibility of the surfactant in the reservoir and injection brine are the primary considerations for further evaluation of the unsaturated surfactant for EOR application. If the surfactant is not soluble in the seawater and formation brine, it can be rejected at the initial stage. […] After the compatibility test with SW and FW, the short-term thermal stability of the synthesized unsaturated surfactant was evaluated using TGA analysis. […] Only 3% weight loss was observed up to 200° C., which was mainly associated with solvent and water evaporation. […]

The nature of data set [2]: Long-term thermal stability: aging at 90° C. for 15 days, phase behavior, NMR, FTIR. It counts as physicochemical. Here is the method: as §1
For long-term thermal stability, 1 wt % surfactant solution was aged in sealed aging tubes at 90° C. for 15 days. […] The two methyl carbons directly attached to the quaternary nitrogen [—CH2—N^+—(CH3)2—CH2—] were detected at δ=50.8 ppm and the two methylene carbons directly attached to quaternary nitrogen [—CH2—N^+—(CH3)2—CH2—] at δ=62.2 and δ=62.7 ppm. The olefinic carbons in the unsaturated surfactant tail appeared at δ=129.6 and δ=130.0 ppm. The amide carbonyl group [—CH2—C═O—NH] resonated at δ=175.1 ppm. The peaks appearing in the ^13C-NMR spectra of the sample agreed with the proposed structure of the unsaturated surfactant. […] The carbons of two methyl groups connected with the central positively charged nitrogen [—CH2—N^+(CH3)2—CH2—] still present in the aged sample and were detected at δ=50.8 ppm. Similarly, the carbons of two methylene groups attached to the central positively charged nitrogen [—CH2—N^+(CH3)2—CH2—] were also detected at δ=62.2 and δ=62.7 ppm. […] In the ^1H-NMR spectrum of the unsaturated surfactant before aging (FIG. 5), the terminal methyl protons [—(CH2)n—CH3)] was detected at δ=0.84 ppm and the methylene protons [—(CH2)n—CH3)] in the unsaturated surfactant tail resonated at δ=1.23 ppm. […]

Regarding `CCCCCCCC/C=C\CCCCCCCC(=O)NCCC[N+](C)(C)CCCS(=O)(=O)[O-]` [unsaturated surfactant, 3-(N-oleamidopropyl-N,N-dimethylammonium) propane sulfonate], the “short-range thermal stability (TGA)” value in data set [1] was “excellent short-range thermal stability”. Moreover, the “weight loss (TGA)” value in data set [1] (up to 200° C., heating rate 10° C. min^−1, nitrogen) is recorded as 3%. In data set [2] (1 wt % surfactant solution, sealed tubes, 90° C., 15 days), the “appearance of solution after aging” value was “remained clear and there was no phase separation or precipitation”. Besides, the long-term thermal stability entry in data set [2] (90° C., 15 days, phase behavior, TGA, FTIR, NMR) is “excellent long-range thermal stability”. Also, in data set [2] (aged 15 days at 90° C.), the “structure after aging (1H/13C NMR, FTIR)” value is recorded as “survival of original structure; also recorded: no structure degradation”.

Values taken from patent US11421145B2, “Oil recovery methods using a formulation containing an unsaturated zwitterionic surfactant and a polymer” (King Fahd University of Petroleum and Minerals, priority 2019, dated 2022).
